Test results taken from patent US6706509B2, “Oncoprotein protein kinase” (The Regents of the University of California, priority 1993, dated 2004).

Tests used:
JNK1 = experiment: Epitope-tagged JNK1 protein kinase activity in transfected COS cells; format: cell-based; details: 10 nM EGF or 100 nM TPA
Protocol: JNK1 protein kinase activity was detected in the immune-complex. Immunecomplex kinase assays using either M2 immunoprecipitates or purified JNK1, JNK-46, and ERK1 or ERK2 were performed at 30° C. for 20 mins using 3 μg of substrate, 20 μM ATP and 5 μCi of [γ-^32P]ATP in 30 μl of kinase buffer (25 mM Hepes (pH 7.6), 20 mM MgCl2, 20 mM β-glycerophosphate, 20 mM p-nitrophenyl phosphate, 0.1 mM Na orthovanadate, 2 mM DTT). The reactions were terminated with Laemmli sample buffer and the products were resolved by SDS-PAGE (12% gel). JNK1 protein activity was also measured after SDS-PAGE by the in-gel kinase assay with the substrate GST-cJun(1-79) as described by Hibi, et al., supra, (1993). Solid-phase protein kinase assays were performed as described by Hibi, et al., supra, (1993). Clarified cell extracts were incubated with GST fusion proteins immobilized on GSH-agarose beads. After 3 hours at 4° C., the beads were washed extensively and bound JNK1 was detected by the addition of [γ-^32P]ATP. The reaction was terminated after 10 mins at 30° C. and the products were resolved by SDS-PAGE. The incorporation of [^32P]phosphate was visualized by autoradiography and quantitated with a phosphorimager and ImageQuant software (Molecular Dynamics Inc., Sunnyvale, Calif.). The methods used for phosphopeptide mapping (Boyle, et al., Cell 64:573-584, 1991) and phosphoamino acid analysis (Alvarez, et al., J. Biol. Chem 266:15227-15285, 1991) were described previously.
Epitope-tagged JNK1 was expressed in COS cells. Control experiments were performed using mock-transfected cells. After 48 hours, the cells were treated either without or with 100 nM TPA, 10 nM EGF, or 80 J/m^2 UV-C and incubated for 1 hr. The cells were lysed in RIPA buffer and the JNK1 proteins were isolated by immunoprecipitation with the M2 monoclonal antibody. JNK1 protein kinase activity was measured after SDS-PAGE using an in-gel kinase assay with the substrate GST-cJun(1-79) polymerized into the gel.
COS-1 cells were maintained in. Dulbecco's modified Eagle's medium supplemented with 5% […] (Gibco-BRL). Metabolic labeling with [^32P]phosphate was performed by incubation of cells in phosphate-free modified Eagle's medium (Flow Laboratories Inc.) supplemented with 0.1% fetal bovine serum and 1 mCi/ml [^32P]orthophosphate (Dupont-NEN). COS cells were treated with 10 nM EGF or 100 nM thorbol myristate acetate. The cells were then incubated for defined times at 37° C. prior to harvesting and measurement of JNK1 protein kinase activity. The data are presented as arbitrary units. […] In contrast, exposure to UV radiation caused a marked increase in JNK1 activity.

jun-D = experiment: Northern blot of jun-D expression in Jurkat cells; format: cell-based, human; details: CsA 100 ng/ml, 40 minutes
Protocol: Exponentially growing Jurkat cells (10^6/ml) grown in complete RPMI medium was pretreated with CsA for 15 minutes when applicable, then subjected to various treatments for another 40 minutes. Total cytoplasmic RNA was extracted as previously described (Angel, et al., Cell, 49:729-739, 1987). 10 μg RNA was denatured by incubating with glyoxal for 60 minutes at 55° C. and fractionated on a 1% agarose gel in phosphate buffer. The fractionated RNA was blotted to Zetabind Nylon membrane (CUNO Labs) and hybridized to ^32P-labelled cDNA probes specific for c-jun, jun-B, jun-D, c-fos, α-tubulin and IL-2.
During the first stage of T lymphocyte activation, early response genes are rapidly included (Crabtree, Science, 243:355,361, 1989; Zipfel, et al., Mol Cell Bio., 9:1041-1048, 1989). Induction of jun and fos genes during activation of the Jurkat T cell line was investigated. […] After fractionation of 10 μg samples on an agarose gel and transfer to nylon membrane, the level of c-jun, jun-B, jun-D, c-fos and α-tubulin expression was determined by hybridization to random primed cDNA probes.

| Compound | JNK1 activation (JNK1) | duration of JNK1 activation (JNK1) | effect on potentiation of jun-D expression by TPA+A23187 (jun-D) |
| --- | --- | --- | --- |
| CCCCCCCCCCCCCC(=O)O[C@@H]1[C@@H](C)[C@@]2(O)[C@@H](C=C(CO)C[C@]3(O)C(=O)C(C)=C[C@@H]23)[C@H]2C(C)(C)[C@]12OC(C)=O [TPA] | low level of JNK1 activation | approximately 2 hours |  |
| cyclosporin A [CsA] |  |  | not inhibited |
